Values after ≈ are worked out from the molar mass of the structure shown. Active and inactive are the calls of the source. The calls are words filed in the database; no cut-off is given here.
How the values were obtained:
[1] = Cytotoxicity against human L02 cells assessed as inhibition of cell growth incubated for 48 hrs by CCK-8 assay; assay type: toxicity, cell-based
[2] = system: Lactobacillus acidophilus; experiment: Antibacterial activity against Lactobacillus acidophilus ATCC CGMCC 1.577 assessed as bacterial growth inhibition incubated for 48 hrs by broth dilution susceptibility test; assay type: functional
Fusobacterium nucleatum [3] = experiment: Antibacterial activity against Fusobacterium nucleatum ATCC 23726 assessed as bacterial growth inhibition incubated for 72 hrs by turbidimeter analysis; assay type: functional, organism-based
[4] = Oral bioavailability in Sprague-Dawley rat at 20 mg/kg measured upto 24 hrs by LC-MS/MS analysis; assay type: ADME, organism-based; settings: in vivo
[5] = Acute toxicity in po dosed ICR mouse assessed as kidney damage at 1500 mg/kg, po measured after 7 days by H and E staining based analysis; assay type: organism-based; settings: in vivo, 168 h, time 7 day
[6] = Acute toxicity in po dosed ICR mouse assessed as spleen damage at 1500 mg/kg, po measured after 7 days by H and E staining based analysis; assay type: organism-based; settings: in vivo, 168 h, time 7 day
MC-38 [7] = experiment: Antiproliferative activity against mouse MC-38 cells assessed as inhibition of cell growth incubated for 48 hrs by CCK-8 assay; assay type: functional, cell-based; settings: MC-38, 48 h
Fusobacterium nucleatum [8] = experiment: Antibacterial activity against Fusobacterium nucleatum ATCC 23726 assessed as bacterial growth inhibition at 4 ug/ml incubated for 72 hrs by turbidimeter analysis; assay type: functional, organism-based; settings: dose 4.0 µg/ml
[9] = Acute toxicity in po dosed ICR mouse assessed as heart damage at 1500 mg/kg, po measured after 7 days by H and E staining based analysis; assay type: organism-based; settings: in vivo, 168 h, time 7 day
[10] = Tmax in Sprague-Dawley rat at 20 mg/kg, po measured upto 24 hrs by LC-MS/MS analysis; assay type: ADME, organism-based; settings: in vivo
[11] = system: Salmonella enterica subsp. enterica serovar Paratyphi B; experiment: Antibacterial activity against Salmonella paratyphi B ATCC CMCC50094 assessed as bacterial growth inhibition incubated for 48 hrs by broth dilution susceptibility test; assay type: functional
Akkermansia muciniphila = experiment: Antibacterial activity against Akkermansia muciniphila ATCC BAA-835 assessed as bacterial growth inhibition incubated for 48 hrs by broth dilution susceptibility test; assay type: functional
Enterococcus faecalis = experiment: Antibacterial activity against Enterococcus faecalis ATCC 29212 assessed as bacterial growth inhibition incubated for 48 hrs by broth dilution susceptibility test; assay type: functional
[12] = Acute toxicity in po dosed ICR mouse assessed as liver damage at 1500 mg/kg, po measured after 7 days by H and E staining based analysis; assay type: organism-based; settings: in vivo, 168 h, time 7 day
Fusobacterium nucleatum [13] = experiment: Inhibition of Fusobacterium nucleatum ATCC 23726 stimulated mouse MC-38 cell migration assessed as reduction in number of migrating cells at 2 to 4 ug/ml incubated for 48 hrs by crystal violet staining based transwell assay; assay type: functional; settings: dose 2-4 µg/ml
Fusobacterium nucleatum [14] = experiment: Antibiofilm activity against Fusobacterium nucleatum ATCC 23726 assessed as inhibition of biofilm formation incubated for 48 hrs by crystal violet staining based assay; assay type: functional, organism-based; settings: dose 0.5-16 µg/ml
[15] = Acute toxicity in po dosed ICR mouse assessed as animal death measured after 7 days; assay type: organism-based; settings: in vivo, time 7 day
Fusobacterium nucleatum [16] = experiment: Antibiofilm activity against Fusobacterium nucleatum ATCC 23726 assessed as inhibition of biofilm formation at 1 ug/ml incubated for 48 hrs by crystal violet staining based assay relative to control; assay type: functional
[17] = system: Peptostreptococcus anaerobius; experiment: Antibacterial activity against Peptostreptococcus anaerobius ATCC 27337 assessed as bacterial growth inhibition incubated for 48 hrs by broth dilution susceptibility test; assay type: functional
MC-38 [18] = experiment: Potency index, ratio of nitisinone IC50 to test compound IC50 for antiproliferative activity against mouse MC-38 cells assessed as inhibition of cell growth incubated for 48 hrs by CCK-8 assay; assay type: functional
Fusobacterium nucleatum [19] = experiment: Antibiofilm activity against Fusobacterium nucleatum ATCC 23726 assessed as downregulation of tnaA gene expression measured after 48 hrs by RT-qPCR analysis; assay type: functional, organism-based
[20] = Half life in Sprague-Dawley rat at 1 mg/kg, iv measured upto 24 hrs by LC-MS/MS analysis; assay type: ADME, organism-based; settings: in vivo
[21] = Metabolic stability in mouse liver microsomes assessed as half life at 1 uM incubated for 45 mins in presence of NADPH by LC-MS/MS analysis; assay type: ADME, Microsome
Shigella flexneri = experiment: Antibacterial activity against Shigella flexneri ATCC 12022 assessed as bacterial growth inhibition incubated for 48 hrs by broth dilution susceptibility test; assay type: functional
Fusobacterium nucleatum [22] = experiment: Antibacterial activity against Fusobacterium nucleatum ATCC 23726 assessed as downregulation of NTR gene expression incubated for 48 hrs by RT-qPCR analysis; assay type: functional, organism-based
[23] = Cytotoxicity against HUVEC cells assessed as inhibition of cell growth incubated for 48 hrs by CCK-8 assay; assay type: toxicity, cell-based; settings: human
L02 = experiment: Downregulation of HPPD gene expression in human L02 cells at 10 to 50 uM incubated for 48 hrs by RT-qPCR analysis; assay type: functional, cell-based; settings: dose 10-50 µM
HCT-116 = experiment: Antiproliferative activity against human HCT-116 cells assessed as inhibition of cell growth incubated for 48 hrs by CCK-8 assay; assay type: functional, cell-based; settings: HCT-116, 48 h
[24] = Acute toxicity in ICR mouse assessed as death rate at 2160 mg/kg, po measured after 7 days; assay type: organism-based; settings: in vivo, time 7 day, read-out: Activity
[25] = Acute toxicity in ICR mouse assessed as death rate at 2592 mg/kg, po measured after 7 days; assay type: organism-based; settings: in vivo, time 7 day, read-out: Activity
Escherichia coli = experiment: Antibacterial activity against Escherichia coli […] assessed as bacterial growth inhibition incubated for 48 hrs by broth dilution susceptibility test; assay type: functional
[26] = Acute toxicity in po dosed ICR mouse assessed as lung damage at 1500 mg/kg, po measured after 7 days by H and E staining based analysis; assay type: organism-based; settings: in vivo, 168 h, time 7 day
Fusobacterium nucleatum [27] = experiment: Antibacterial activity against Fusobacterium nucleatum ATCC 23726 assessed as bacterial growth inhibition incubated for 48 hrs by broth dilution susceptibility test; assay type: functional
[28] = Drug metabolism assessed as NTR(unknown origin)-mediated metabolism at 10 mM incubated for 2 hrs in presence of NADH by LC-MS analysis; assay type: ADME; settings: bacteria, 10000 µM
[29] = Clearance in Sprague-Dawley rat at 1 mg/kg, iv measured upto 24 hrs by LC-MS/MS analysis; assay type: ADME, organism-based; settings: in vivo
Staphylococcus aureus = experiment: Antibacterial activity against Staphylococcus aureus ATCC 6538 assessed as bacterial growth inhibition incubated for 48 hrs by broth dilution susceptibility test; assay type: functional
[30] = Cmax in Sprague-Dawley rat at 1 mg/kg, iv measured upto 24 hrs by LC-MS/MS analysis; assay type: ADME, organism-based; parameters: dose 1 mg/kg, time < 24 hrs, route iv; settings: in vivo
[31] = Acute toxicity in po dosed ICR mouse assessed as lung damage by measuring thickening of alveolar walls at 1500 mg/kg, po measured after 7 days by H and E staining based analysis; assay type: organism-based; settings: in vivo, 168 h, time 7 day
[32] = Acute toxicity in po dosed ICR mouse assessed as kidney damage by measuring atrophy of glomerulus at 1500 mg/kg, po measured after 7 days by H and E staining based analysis; assay type: organism-based; settings: in vivo, 168 h, time 7 day
Fusobacterium nucleatum [33] = experiment: Inhibition of Fusobacterium nucleatum ATCC 23726 stimulated mouse MC-38 cell migration assessed as reduction in number of migrating cells at 16 to 32 ug/ml incubated for 48 hrs by crystal violet staining based transwell assay; assay type: functional; settings: dose 16-32 µg/ml

Row | Compound | IC50 at 48 h [1] [µM] | MIC50 [2] [µg/mL] | IC50 (MC-38 [7]) [µM] | MIC50 [11] [µg/mL] | MIC50 (Akkermansia muciniphila) [µg/mL] | MIC50 (Enterococcus faecalis) [µg/mL] | inhibition (Fusobacterium nucleatum [14]) | LD50 at 168 h [15] [mg/kg] | MIC50 [17] [µg/mL] | Activity (Fusobacterium nucleatum [19]) | MIC50 (Shigella flexneri) [µg/mL] | Activity (Fusobacterium nucleatum [22]) | IC50 at 48 h [23] [µM] | Activity (L02) | IC50 (HCT-116) [µM] | mortality at 168 h [24] [%] | mortality at 168 h [25] [%] | MIC50 (Escherichia coli) [µg/mL] | MIC50 (Fusobacterium nucleatum [27]) [µg/mL] | MIC50 (Staphylococcus aureus) [µg/mL] | further results
1 | O=C(NCc1ccc(Br)nc1)c1ccc([N+](=O)[O-])o1 | 16 | 64 (≈ 196 µM) | 11 | > 64 | > 64 | > 64 | Dose-Dependent Effect | 2400 | 64 (≈ 196 µM) | Dose-Dependent Effect | 64 (≈ 196 µM) | Dose-Dependent Effect | 16 | Active | 32 | 20 | 70 | > 64 | 1 (≈ 3.07 µM) | > 64 | Activity (Fusobacterium nucleatum [3]): Dose-Dependent Effect; bioavailability [4]: 4.2%; Activity [5]: Non-Toxic; Activity [6]: Non-Toxic; Activity (Fusobacterium nucleatum [8]): Active; Activity [9]: Non-Toxic; Tmax [10]: 84 min; Activity [12]: Non-Toxic; inhibition (Fusobacterium nucleatum [13]): Active; inhibition at 1 µg/mL (Fusobacterium nucleatum [16]): > 50%; Ratio IC50 (MC-38 [18]): 8; half-life [20]: ~4.08 min; half-life at 1 µM [21]: 25.1 min; Activity [26]: Non-Toxic; MIC90 (Fusobacterium nucleatum [27]): 4 µg/mL (≈ 12.3 µM); Drug metabolism [28]: Metabolite_Detected; clearance [29]: 601 mL/min/kg; Cmax [30]: 85 ng/mL
2 | O=C1CCCC(=O)C1C(=O)c1ccc(C(F)(F)F)cc1[N+](=O)[O-] [NITISINONE] | 104 | 64 (≈ 194 µM) | 96 | > 64 | > 64 | > 64 | Dose-Dependent Effect | 1610 | > 64 | Dose-Dependent Effect | > 64 | Dose-Dependent Effect | 338 | Active | 108 | 100 | 90 | > 64 | 8 (≈ 24.3 µM) | > 64 | Activity [31]: Toxic; Activity [32]: Toxic; inhibition (Fusobacterium nucleatum [33]): Active

Reference: ChEMBL document CHEMBL5375955, “Discovery of New Fusobacterium nucleatum Inhibitors to Attenuate Migratory Capability of Colon Cancer Cells by the Drug Repositioning Strategy” (J Med Chem, 2023)
